In patent US11332459B2 (TEIJIN PHARMA LIMITED, priority 2017, dated 2022):
Counter-ions that a name gives are not always drawn.

molecular target: T1, human TRPC6 (Homo sapiens, UniProt Q9Y210); assay: TRPC6 calcium flux assay (FLIPR, OAG-stimulated calcium influx); assay type: cell-based; settings: HEK293 cells stably transfected with human TRPC6, read-out: hTRPC6 Potency
T1 construct: expressed in transfected cells
T1 sequence (Q9Y210 1-931): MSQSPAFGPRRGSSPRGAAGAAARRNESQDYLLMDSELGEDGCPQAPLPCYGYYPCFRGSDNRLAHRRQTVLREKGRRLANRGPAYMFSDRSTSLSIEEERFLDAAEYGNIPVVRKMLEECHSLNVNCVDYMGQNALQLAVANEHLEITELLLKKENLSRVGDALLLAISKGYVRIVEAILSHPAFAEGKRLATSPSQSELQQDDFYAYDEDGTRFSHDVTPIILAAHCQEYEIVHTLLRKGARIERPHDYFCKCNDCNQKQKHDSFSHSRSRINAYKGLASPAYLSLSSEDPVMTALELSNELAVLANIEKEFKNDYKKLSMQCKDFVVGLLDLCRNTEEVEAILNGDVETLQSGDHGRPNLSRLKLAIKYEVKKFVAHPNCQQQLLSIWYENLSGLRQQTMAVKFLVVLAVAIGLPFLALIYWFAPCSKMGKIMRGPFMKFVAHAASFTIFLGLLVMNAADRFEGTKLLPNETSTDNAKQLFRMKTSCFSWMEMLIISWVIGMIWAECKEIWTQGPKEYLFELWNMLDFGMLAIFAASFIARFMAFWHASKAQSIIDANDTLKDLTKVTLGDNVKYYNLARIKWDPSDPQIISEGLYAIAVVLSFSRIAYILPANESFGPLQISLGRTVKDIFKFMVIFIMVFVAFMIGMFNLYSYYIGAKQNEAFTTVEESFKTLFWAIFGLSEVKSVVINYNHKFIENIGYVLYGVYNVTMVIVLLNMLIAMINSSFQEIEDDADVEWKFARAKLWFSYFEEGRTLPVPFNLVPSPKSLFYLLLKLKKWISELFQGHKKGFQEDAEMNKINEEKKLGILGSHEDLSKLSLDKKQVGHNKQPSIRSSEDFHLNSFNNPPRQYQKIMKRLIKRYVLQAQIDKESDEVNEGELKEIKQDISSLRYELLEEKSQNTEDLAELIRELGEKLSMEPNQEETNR
Procedure, shortened: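 HEK293 cells stably expressing human TRPC6, loaded with calcium dye 90–120 min at RT, then given compound for 25 min before OAG (50 uM final, 0.5% DMSO) in HEPES buffer pH 7.2 with 2 mM CaCl2. Background-subtracted FLIPR peak over 180 s normalized to OAG vs buffer; IC50 from dose plot.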

First: N#Cc1ccc(Cn2c(N3CCC(F)(F)[C@H](N)C3)nc3c(Cl)cccc32)cc1 [Example 407, (R)-4-((2-(3-amino-4,4-difluoropiperidin-1-yl)-4-chloro-1H-benzo[d]imidazol-1-yl)methyl)benzonitrile]
Second: N#Cc1ccc(Cn2c(N3CC[C@@](F)(CN)C3)nc3ccccc32)cc1 [Example 174, (R)-4-((2-(3-(aminomethyl)-3-fluoropyrrolidin-1-yl)-1H-benzo[d]imidazol-1-yl)methyl)benzonitrile 2,2,2-trifluoroacetate]
The IC50 of the first is 96-fold lower: 0.00585 µM for the first, 0.564 µM for the second.

Going from N[C@@H]1CN(c2nc3cc(C(F)(F)F)ccc3n2Cc2ncc(F)cn2)CC[C@@H]1F [Example 306, (3R,4S)-4-fluoro-1-(1-((5-fluoropyrimidin-2-yl)methyl)-5-(trifluoromethyl)-1H-benzo[d]imidazol-2-yl)piperidin-3-amine] to COc1cnc(Cn2c(N3CC[C@@H](F)[C@H](N)C3)nc3ccccc32)nc1 [Example 194, (3R,4R)-4-fluoro-1-(1-((5-methoxypyrimidin-2-yl)methyl)-1H-benzo[d]imidazol-2-yl)piperidin-3-amine], the IC50 falls from 1.43 µM to 0.0142 µM (100-fold). The second is the more potent here.

N#Cc1ccc(Cn2c(N3CC[C@@H](F)[C@H](N)C3)nc3cc(F)c(F)cc32)cc1Cl [Example 346, 4-((2-((3R,4R)-3-amino-4-fluoro-1-piperidinyl)-5,6-difluoro-1H-benzimidazol-1-yl)methyl)-2-chlorobenzonitrile] and Cc1cc(Cn2c(N3CC[C@@H](F)[C@H](N)C3)nc3cc(F)c(F)cc32)ccc1C#N (stereo in doubt) [Example 345, 4-((2-((3R,4R)-3-amino-4-fluoro-1-piperidinyl)-5,6-difluoro-1H-benzimidazol-1-yl)methyl)-2-methylbenzonitrile] are within 1.5-fold of each other in IC50: 0.00139 µM for the first, 0.0015 µM for the second.

Compared with N[C@@H]1CN(c2nc3cc(F)c(F)cc3n2CC(=O)N2CCN(C(=O)C3CC3)CC2)CC[C@H]1F [Example 531, 2-(2-((3R,4R)-3-amino-4-fluoropiperidin-1-yl)-5,6-difluoro-1H-benzo[d]imidazol-1-yl)-1-(4-(cyclopropanecarbonyl)piperazin-1-yl)ethan-1-one], N#CCCN(CC1CCOC1)C(=O)Cn1c(N2CC[C@@H](F)[C@H](N)C2)nc2cc(F)c(F)cc21 (stereo partly drawn) [Example 643, 2-(2-((3R,4R)-3-amino-4-fluoropiperidin-1-yl)-5,6-difluoro-1H-benzo[d]imidazol-1-yl)-N-(2-cyanoethyl)-N-((tetrahydrofuran-3-yl)methyl)acetamide] is lower in IC50: greater than 3.75 µM for the first, 1.82 µM for the second.

Compared with N[C@@H]1CCCN(c2nc3ccccc3n2Cc2ccc(Cl)c(F)c2)C1 [Example 391, (R)-1-(1-(4-chloro-3-fluorobenzyl)-1H-benzo[d]imidazol-2-yl)piperidin-3-amine], N#Cc1ccc(Cn2c(N3CCC[C@H](N)C3)nc3cccnc32)cc1 [Example 419, (S)-4-((2-(3-aminopiperidin-1-yl)-3H-imidazo[4,5-b]pyridin-3-yl)methyl)benzonitrile hydrochloride] is 14-fold lower in IC50: 1.82 µM for the first, 0.128 µM for the second. The second is the more potent here.

First: N[C@@H]1CN(c2nc3cc(F)c(F)cc3n2Cc2ccc(F)c(Cl)c2)CC[C@H]1F [Example 349, (3R,4R)-1-(1-(3-chloro-4-fluorobenzyl)-5,6-difluoro-1H-benzimidazol-2-yl)-4-fluoro-3-piperidinamine]
Second: N#Cc1ccc(Cn2c(N3CC[C@@H](F)[C@H](N)C3)nc3cc(F)c(F)cc32)c(OC(F)F)c1 [Example 342, 4-((2-((3R,4R)-3-amino-4-fluoro-1-piperidinyl)-5,6-difluoro-1H-benzimidazol-1-yl)methyl)-3-(difluoromethoxy)benzo-nitrile]
The IC50 of the first is 18-fold higher: 0.215 µM for the first, 0.0121 µM for the second.

First: C[C@H]1CCN(c2nc3ccccc3n2Cc2ccc(C#N)cc2)C[C@H]1N [Example 180, 4-((2-((3S,4S)-3-amino-4-methylpiperidin-1-yl)-1H-benzo[d]imidazol-1-yl)methyl)benzonitrile 2,2,2-trifluoroacetate]
Second: N#Cc1ccc(Cn2c(N3C[C@@H](N)[C@H](c4ccccc4)C3)nc3ccccc32)cc1 (racemic) [Example 165, 4-((2-((3S,4R)-3-amino-4-phenylpyrrolidin-1-yl)-1H-benzo[d]imidazol-1-yl)methyl)benzonitrile & 4-((2-((3R,4S)-3 amino-4-phenylpyrrolidin-1-yl)-1H-benzo[d]imidazol-1-yl)methyl)benzonitrile]
The IC50 of the first is 140-fold lower: 0.0149 µM for the first, 2.06 µM for the second. The first is the more potent here.

Going from CO[C@@H]1CCN(c2nc3cc(F)ccc3n2CC(=O)N(C)CC(F)(F)F)C[C@H]1N [Example 483, 2-(2-((3R,4R)-3-amino-4-methoxypiperidin-1-yl)-5-fluoro-1H-benzo[d]imidazol-1-yl)-N-methyl-N-(2,2,2-trifluoroethyl)acetamide] to CO[C@H]1CCN(c2nc3ccc(F)cc3n2Cc2ccc(C#N)cn2)C[C@H]1N [Example 463, 6-((2-((3R,4S)-3-amino-4-methoxypiperidin-1-yl)-6-fluoro-1H-benzo[d]imidazol-1-yl)methyl)nicotinonitrile], the IC50 falls from 2.74 µM to 0.0339 µM (81-fold). The second is the more potent here.

First: N[C@@H]1CN(c2nc3cc(F)c(F)cc3n2Cc2nnc(C(F)F)s2)CC[C@H]1F [Example 560, (3R,4R)-1-(1-((5-(difluoromethyl)-1,3,4-thiadiazol-2-yl)methyl)-5,6-difluoro-1H-benzo[d]imidazol-2-yl)-4-fluoropiperidin-3-amine]
Second: CCc1nc(Cn2c(N3CC[C@@H](F)[C@H](N)C3)nc3cc(F)c(F)cc32)no1 [Example 577, (3R,4R)-1-(1-((5-ethyl-1,2,4-oxadiazol-3-yl)methyl)-5,6-difluoro-1H-benzo[d]imidazol-2-yl)-4-fluoropiperidin-3-amine]
The IC50 of the first is 9.8-fold lower: 0.0187 µM for the first, 0.184 µM for the second.

Going from N#Cc1ccc(Cn2c(N3CC[C@H](F)[C@H](N)C3)nc3c(F)cc(F)cc32)nc1 [Example 65, 6-((2-((3R,4S)-3-amino-4-fluoropiperidin-1-yl)-4,6-difluoro-1H-benzo[d]imidazol-1-yl)methyl)nicotinonitrile] to N#Cc1ccc(Cn2c(N3CC[C@H](F)[C@H](N)C3)nc3c(Cl)cc(Cl)cc32)nc1 [Example 59, 6-((2-((3R,4S)-3-amino-4-fluoropiperidin-1-yl)-4,6-dichloro-1H-benzo[d]imidazol-1-yl)methyl)nicotinonitrile], the IC50 falls from 0.000598 µM to 0.000256 µM (2.3-fold).

Going from N#Cc1ccc(Cn2c(N3CCC(F)(F)[C@H](N)C3)nc3cc(C(F)(F)F)ccc32)nc1 [Example 109, 6-((2-((3R)-3-amino-4,4-difluoro-1-piperidinyl)-5-(trifluoromethyl)-1H-benzimidazol-1-yl)methyl)-3-pyridinecarbonitrile] to N#Cc1ccc(Cn2c(N3CC[C@H](O)[C@H](N)C3)nc3ccc(Cl)cc32)nc1 [Example 153, 6-((2-((3R,4S)-3-amino-4-hydroxypiperidin-1-yl)-6-chloro-1H-benzo[d]imidazol-1-yl)methyl)nicotinonitrile], the IC50 rises from 0.0438 µM to 0.072 µM (1.6-fold). The first is the more potent here.

First: N#Cc1ccc(Cn2c(N3CC[C@H](F)[C@H](N)C3)nc3cc(Cl)c(Cl)cc32)nc1 [Example 82, 6-((2-((3R,4S)-3-amino-4-fluoropiperidin-1-yl)-5,6-dichloro-1H-benzo[d]imidazol-1-yl)methyl)nicotinonitrile hydrochloride]
Second: CC[C@H](c1ccc(C#N)cn1)n1c(N2CCC[C@H](N)C2)nc2ccccc21 [Example 299, 6-((R)-1-(2-((S)-3-aminopiperidin-1-yl)-1H-benzo[d]imidazol-1-yl)propyl)nicotinonitrile hydrochloride]
The IC50 of the first is 17-fold lower: 0.000504 µM for the first, 0.00876 µM for the second.
